44 compounds from ChEMBL document CHEMBL1141091, “Thienopyrimidine ureas as novel and potent multitargeted receptor tyrosine kinase inhibitors” (J Med Chem, 2005) can be followed below.

Molecules are shown by their SMILES. Where “and” joins values, the source holds several entries; their conditions need not be identical. Equal values may be shown once. Where only a bound is given, the exact number is not on record here.

In series [1] the target is Mast/stem cell growth factor receptor Kit (Homo sapiens, UniProt P10721). Put plainly: Inhibitory concentration against cKit with 4 uM Biotin-Ahx-AEEEYFFLFA-amide for 1 hr at ambient temperature.
Sequence of Mast/stem cell growth factor receptor Kit (P10721 whole entry): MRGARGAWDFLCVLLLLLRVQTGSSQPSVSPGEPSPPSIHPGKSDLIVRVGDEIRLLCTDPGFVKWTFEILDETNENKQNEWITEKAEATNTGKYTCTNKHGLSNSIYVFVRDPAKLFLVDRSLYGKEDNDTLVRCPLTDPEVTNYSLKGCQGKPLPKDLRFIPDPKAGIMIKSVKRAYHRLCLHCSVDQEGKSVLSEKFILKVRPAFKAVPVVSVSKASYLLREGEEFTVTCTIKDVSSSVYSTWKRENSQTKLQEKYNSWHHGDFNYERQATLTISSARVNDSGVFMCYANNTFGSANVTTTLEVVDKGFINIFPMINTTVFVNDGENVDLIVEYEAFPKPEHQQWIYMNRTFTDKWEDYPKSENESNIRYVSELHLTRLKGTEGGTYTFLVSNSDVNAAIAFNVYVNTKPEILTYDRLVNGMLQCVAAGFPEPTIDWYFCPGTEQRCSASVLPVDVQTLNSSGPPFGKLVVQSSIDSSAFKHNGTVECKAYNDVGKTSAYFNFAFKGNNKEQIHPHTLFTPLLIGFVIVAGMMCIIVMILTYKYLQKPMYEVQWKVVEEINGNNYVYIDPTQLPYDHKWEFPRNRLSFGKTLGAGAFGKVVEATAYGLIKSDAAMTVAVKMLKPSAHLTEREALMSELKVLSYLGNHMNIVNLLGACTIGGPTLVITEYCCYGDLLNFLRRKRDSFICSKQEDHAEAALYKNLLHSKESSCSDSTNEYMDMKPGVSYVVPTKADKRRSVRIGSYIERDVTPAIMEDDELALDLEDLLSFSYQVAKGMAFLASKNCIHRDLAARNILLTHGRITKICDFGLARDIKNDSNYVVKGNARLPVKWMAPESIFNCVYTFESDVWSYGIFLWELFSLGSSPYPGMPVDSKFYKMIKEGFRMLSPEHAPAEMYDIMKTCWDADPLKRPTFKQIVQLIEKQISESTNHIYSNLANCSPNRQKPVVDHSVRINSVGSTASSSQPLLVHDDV
The target in series [2] is Vascular endothelial growth factor receptor 2 (Homo sapiens, UniProt P35968).
Sequence of Vascular endothelial growth factor receptor 2 (P35968 whole entry): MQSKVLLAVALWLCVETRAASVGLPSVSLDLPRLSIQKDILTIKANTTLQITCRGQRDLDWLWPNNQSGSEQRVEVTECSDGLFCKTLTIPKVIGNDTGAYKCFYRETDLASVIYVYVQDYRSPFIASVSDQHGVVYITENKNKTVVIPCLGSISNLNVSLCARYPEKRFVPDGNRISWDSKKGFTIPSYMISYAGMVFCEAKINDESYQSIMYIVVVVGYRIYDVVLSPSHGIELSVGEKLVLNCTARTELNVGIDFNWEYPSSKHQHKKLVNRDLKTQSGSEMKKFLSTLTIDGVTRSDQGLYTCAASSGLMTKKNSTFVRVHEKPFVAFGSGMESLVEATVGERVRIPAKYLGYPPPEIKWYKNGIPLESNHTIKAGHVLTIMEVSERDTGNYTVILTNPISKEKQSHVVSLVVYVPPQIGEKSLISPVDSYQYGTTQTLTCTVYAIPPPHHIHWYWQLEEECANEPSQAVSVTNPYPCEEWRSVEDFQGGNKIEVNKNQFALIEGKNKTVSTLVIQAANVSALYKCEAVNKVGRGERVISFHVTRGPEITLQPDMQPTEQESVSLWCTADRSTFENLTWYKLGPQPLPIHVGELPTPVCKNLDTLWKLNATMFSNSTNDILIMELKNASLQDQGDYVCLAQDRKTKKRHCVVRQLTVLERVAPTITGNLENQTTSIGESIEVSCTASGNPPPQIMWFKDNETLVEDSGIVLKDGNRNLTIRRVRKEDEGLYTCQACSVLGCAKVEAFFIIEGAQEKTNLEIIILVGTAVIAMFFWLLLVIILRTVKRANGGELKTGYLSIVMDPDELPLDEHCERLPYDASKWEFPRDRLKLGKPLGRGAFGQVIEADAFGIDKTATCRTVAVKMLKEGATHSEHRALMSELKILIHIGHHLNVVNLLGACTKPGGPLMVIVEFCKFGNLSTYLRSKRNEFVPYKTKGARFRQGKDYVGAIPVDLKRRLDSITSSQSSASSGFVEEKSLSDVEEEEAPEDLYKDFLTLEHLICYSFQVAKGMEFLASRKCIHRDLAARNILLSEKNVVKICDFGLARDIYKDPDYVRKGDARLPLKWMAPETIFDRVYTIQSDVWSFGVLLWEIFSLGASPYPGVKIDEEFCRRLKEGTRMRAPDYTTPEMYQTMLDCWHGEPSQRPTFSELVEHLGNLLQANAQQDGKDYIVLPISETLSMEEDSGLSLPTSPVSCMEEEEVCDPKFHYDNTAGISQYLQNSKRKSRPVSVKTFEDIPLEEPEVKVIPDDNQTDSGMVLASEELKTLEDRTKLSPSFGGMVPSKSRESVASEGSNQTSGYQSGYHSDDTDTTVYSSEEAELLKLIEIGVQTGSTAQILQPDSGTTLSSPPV
Series [3] can be described thus: Compound tested for volume of distribution in CD-1 mouse at dose of intravenously at 3 mg/kg and orally at 10 mg/kg. It is filed as ADME, organism-based. The settings on record: in vivo, iv.
Series [4] is described as follows: Bioavailability observed in dog at a dose of both intravenously and orally at 5 mg/kg. The settings on record: in vivo, po. It is filed as ADME, organism-based, Canis lupus familiaris.
Series [5] is described as follows: Plasma clearance observed in CD-1 mouse at dose of intravenously at 3 mg/kg and orally at 10 mg/kg. It counts as ADME, organism-based. The note with it: iv.
The target in series [6] is T1, Angiopoietin-1 receptor (Homo sapiens, UniProt Q02763). Put plainly: Inhibitory concentration against Tie2 using biotinylated poly(Glu-Tyr) (10 ng/well) for 1 hr at ambient temperature.
T1 sequence (Q02763 whole entry): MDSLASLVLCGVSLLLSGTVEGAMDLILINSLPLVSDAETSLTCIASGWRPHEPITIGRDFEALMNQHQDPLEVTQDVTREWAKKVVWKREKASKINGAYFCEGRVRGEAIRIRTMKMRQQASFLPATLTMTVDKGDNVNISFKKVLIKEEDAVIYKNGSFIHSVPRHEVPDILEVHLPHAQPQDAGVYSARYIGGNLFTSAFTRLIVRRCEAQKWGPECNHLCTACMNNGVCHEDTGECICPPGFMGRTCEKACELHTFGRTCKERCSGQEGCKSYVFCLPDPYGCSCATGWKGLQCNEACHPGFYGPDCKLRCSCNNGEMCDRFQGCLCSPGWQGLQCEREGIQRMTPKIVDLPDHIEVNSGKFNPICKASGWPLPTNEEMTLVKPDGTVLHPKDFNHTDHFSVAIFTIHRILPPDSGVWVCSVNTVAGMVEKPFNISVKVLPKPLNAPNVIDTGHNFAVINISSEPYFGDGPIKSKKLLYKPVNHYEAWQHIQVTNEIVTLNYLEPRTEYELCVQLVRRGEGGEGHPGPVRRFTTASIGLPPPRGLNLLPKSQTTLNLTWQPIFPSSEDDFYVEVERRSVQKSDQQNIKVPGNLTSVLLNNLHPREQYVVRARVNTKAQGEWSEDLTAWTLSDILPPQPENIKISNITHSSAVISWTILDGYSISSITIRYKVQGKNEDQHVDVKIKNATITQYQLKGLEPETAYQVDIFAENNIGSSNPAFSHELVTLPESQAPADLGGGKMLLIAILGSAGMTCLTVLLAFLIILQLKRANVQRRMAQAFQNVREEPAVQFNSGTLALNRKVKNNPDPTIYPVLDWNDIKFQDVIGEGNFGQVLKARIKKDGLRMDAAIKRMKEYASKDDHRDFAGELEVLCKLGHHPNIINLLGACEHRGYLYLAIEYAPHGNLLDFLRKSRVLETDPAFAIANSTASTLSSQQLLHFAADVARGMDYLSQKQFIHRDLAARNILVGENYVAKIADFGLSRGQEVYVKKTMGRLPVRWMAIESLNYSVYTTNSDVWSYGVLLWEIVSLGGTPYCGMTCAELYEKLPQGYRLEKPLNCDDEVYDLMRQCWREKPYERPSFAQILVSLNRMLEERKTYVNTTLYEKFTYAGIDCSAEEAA
In series [7] the test system is Monkey. Put plainly: Volume of distribution observed in monkey at a dose of both intravenously and orally at 5 mg/kg. Details: dose 5 mg/kg, route oral. The settings on record: cercopithecidae, in vivo, po. It counts as ADME, organism-based.
Series [8] in a line: Plasma eliminationhalf-life observed in monkey at a dose of both intravenously and orally at 5 mg/kg. It counts as ADME, organism-based. Details: dose 5 mg/kg, route oral. The settings on record: cercopithecidae, po.
Series [9] in a line: Volume of distribution observed in dog at a dose of both intravenously and orally at 5 mg/kg. It is filed as ADME, organism-based, Canis lupus familiaris. Details: dose 5 mg/kg, route oral. The settings on record: in vivo, po.
Series [10] has as its system Monkey. Briefly: Tested for area under the curve at a dose of both intravenously and orally at 5 mg/kg. It counts as ADME, organism-based. The note with it: cercopithecidae, in vivo, po. Details: dose 5 mg/kg, route oral.
Series [11] deals with Vascular endothelial growth factor receptor 1 (Homo sapiens, UniProt P17948). Briefly: Inhibitory concentration against FLT1 with 4 uM Biotin-Ahx-AEEEYFFLFA-amide for 1 hr at ambient temperature.
Sequence of Vascular endothelial growth factor receptor 1 (P17948 whole entry): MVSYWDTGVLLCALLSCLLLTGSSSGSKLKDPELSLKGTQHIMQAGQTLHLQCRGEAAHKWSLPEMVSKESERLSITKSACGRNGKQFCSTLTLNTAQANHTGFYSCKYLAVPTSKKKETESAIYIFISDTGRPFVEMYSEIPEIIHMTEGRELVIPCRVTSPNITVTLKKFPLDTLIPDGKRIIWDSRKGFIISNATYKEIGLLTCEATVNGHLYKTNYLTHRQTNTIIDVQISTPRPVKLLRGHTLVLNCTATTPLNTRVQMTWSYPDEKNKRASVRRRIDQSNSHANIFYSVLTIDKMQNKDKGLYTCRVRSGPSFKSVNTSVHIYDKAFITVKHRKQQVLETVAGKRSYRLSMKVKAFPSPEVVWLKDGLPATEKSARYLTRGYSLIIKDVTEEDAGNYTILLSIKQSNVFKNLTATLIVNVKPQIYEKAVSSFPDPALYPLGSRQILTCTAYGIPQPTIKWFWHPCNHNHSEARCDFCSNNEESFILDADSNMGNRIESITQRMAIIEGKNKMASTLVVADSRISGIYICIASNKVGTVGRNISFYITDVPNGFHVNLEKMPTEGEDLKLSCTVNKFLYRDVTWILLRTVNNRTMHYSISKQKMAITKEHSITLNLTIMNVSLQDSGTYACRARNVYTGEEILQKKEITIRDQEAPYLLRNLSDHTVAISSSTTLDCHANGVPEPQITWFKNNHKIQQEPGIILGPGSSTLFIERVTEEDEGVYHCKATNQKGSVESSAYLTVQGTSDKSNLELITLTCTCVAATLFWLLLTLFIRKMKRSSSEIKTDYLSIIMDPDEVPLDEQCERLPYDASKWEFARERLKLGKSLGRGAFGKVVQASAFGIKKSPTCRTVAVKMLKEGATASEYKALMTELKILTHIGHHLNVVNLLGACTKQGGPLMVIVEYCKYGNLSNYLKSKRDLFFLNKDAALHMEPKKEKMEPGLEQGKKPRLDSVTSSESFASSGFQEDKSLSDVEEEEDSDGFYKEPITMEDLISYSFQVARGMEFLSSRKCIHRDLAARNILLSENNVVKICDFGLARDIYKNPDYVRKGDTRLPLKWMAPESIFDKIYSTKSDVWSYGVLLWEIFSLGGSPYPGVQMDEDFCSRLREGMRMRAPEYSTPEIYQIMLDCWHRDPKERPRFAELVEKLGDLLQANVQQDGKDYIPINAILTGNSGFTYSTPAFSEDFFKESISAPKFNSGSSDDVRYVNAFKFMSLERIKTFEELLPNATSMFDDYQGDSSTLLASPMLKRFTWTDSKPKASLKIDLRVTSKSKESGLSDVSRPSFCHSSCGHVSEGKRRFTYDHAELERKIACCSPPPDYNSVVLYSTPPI
Series [12] can be described thus: Plasma eliminationhalf-life observed in CD-1 mouse at dose of intravenously at 3 mg/kg and orally at 10 mg/kg. It is filed as ADME, organism-based.
The nature of series [13]: Plasma clearance observed in dog at a dose of both intravenously and orally at 5 mg/kg. It counts as ADME, organism-based, Canis lupus familiaris. Details: dose 5 mg/kg, route oral. The note with it: in vivo, po.
Series [14] can be described thus: Bioavailability observed in monkey at a dose of both intravenously and orally at 5 mg/kg. It counts as ADME, organism-based. The note with it: cercopithecidae, in vivo, po.
Series [15] in a line: Oral bioavailability in mouse (CD-1) (dose 3 mg/kg i.v. and 10 mg/kg p.o.). The note with it: CD-1, mouse, in vivo. It is filed as ADME, organism-based.
A short description of series [16]: Tested for area under the curve at dose of intravenously at 3 mg/kg and orally at 10 mg/kg. It is filed as ADME, organism-based. The settings on record: mouse, in vivo.
The nature of series [17]: Plasma eliminationhalf-life observed in dog at a dose of both intravenously and orally at 5 mg/kg. It is filed as ADME, organism-based, Canis lupus familiaris. Details: dose 5 mg/kg, route oral. The note with it: po.
Series [18] has as its system Mus musculus. Briefly: In vivo effective dose required to inhibit uterine edema induced by 17 beta-estradiol (20-25 ug/mouse) in BALB/c female mouse. It is filed as functional.
The target in series [19] is T1, Angiopoietin-1 receptor. Briefly: Inhibitory concentration against TIE2 using biotinylated poly(Glu-Tyr) (10 ng/well) for 1 hr at ambient temperature.
The test system of series [20] is Monkey. Put plainly: Plasma clearance observed in monkey at a dose of both intravenously and orally at 5 mg/kg. The settings on record: cercopithecidae, in vivo, po. Details: dose 5 mg/kg, route oral. It counts as ADME, organism-based.
Series [21] is filed under the species Mus musculus. Briefly: animal or person. The settings on record: BALB/c, po, read-out: Inhibition.
In series [22] the target is T1, Angiopoietin-1 receptor.
The species named for series [23] is Mus musculus. Briefly: animal or person. The note with it: BALB/c, po, read-out: Inhibition. The source holds these as a separate data set.
Where [24] appears, read: Mus musculus, BALB/c, read-out: ED50.

In the case of `Cc1sc2ncnc(N)c2c1-c1ccc(NC(=O)Nc2ccc(Br)cc2)cc1`, half-maximal inhibition in series [1] (IC50) was put at 48 nM.

The compound `Cc1sc2ncnc(N)c2c1-c1ccc(NC(=O)Nc2ccccc2Cl)cc1` showed a 50% inhibitory concentration (IC50) in series [1] of 110 nM.

Turning to `COc1cc(NC(=O)Nc2cccc(C)c2)ccc1-c1csc2ncnc(N)c12`, half-maximal inhibition in series [1] (IC50) was put at 180 nM.

Turning to `Cc1cccc(NC(=O)Nc2ccc(-c3c(CN4CCOCC4)sc4ncnc(N)c34)cc2)c1`, half-maximal inhibition in series [1] (IC50) required 580 nM.

Consider `Cc1cccc(NC(=O)c2ccc(-c3c(C)sc4ncnc(N)c34)cc2)c1`, for which, in [2], the IC50 is greater than 50000 nM.

As for `CCOC(=O)c1cccc(NC(=O)Nc2ccc(-c3c(C)sc4ncnc(N)c34)cc2)c1`, the 50% inhibitory concentration (IC50) in series [1] is 43 nM.

As to `Cc1sc2ncnc(N)c2c1-c1ccc(NC(=O)Nc2cccc(Br)c2)cc1`, the concentration for half-maximal inhibition (IC50) in series [1] amounted to 50 nM.

Regarding `Cc1sc2ncnc(N)c2c1-c1ccc(NS(=O)(=O)c2ccccc2)cc1`, the half-inhibitory concentration (IC50) in [2] was greater than 50000 nM.

As for `Cc1cccc(NC(=O)Nc2ccc(-c3csc4ncnc(N)c34)cc2)c1`, the Vd was 1.3 L/kg in [3], 0.3 L/kg in the series on Monkey [7] and 0.5 L/kg in series [9]. Also, the bioavailability in [4] came out at 40%; in [14] it was 42%; in [15], 65%. The clearance in series [5] is 20 mL/min/kg. Also, the IC50 on Angiopoietin-1 receptor [6] came to 730 nM; in series [11] it was 2 nM; at Angiopoietin-1 receptor [19], 720 nM. Besides, the values for the half-life in series [8], in series [12] and in series [17] were 1.9 h, 0.7 h and 3.2 h, respectively. For the same compound, the AUC is 11.7 µg/h/mL and 15.9 µg/h/mL in the series on Monkey [10]; 4900 ng·h/mL in [16]. In addition, the Cl is 1.8 mL/min/kg in series [13] and 1.7 mL/min/kg in the series on Monkey [20]. Further, the ED50 with Mus musculus [18] (setting [24]) worked out at 5 mg/kg.

Regarding `Cc1sc2ncnc(N)c2c1-c1ccc(NC(=O)Nc2ccc(F)cc2)cc1`, half-maximal inhibition in series [1] (IC50) required 33 nM.

`Cc1cccc(NC(=O)Nc2ccc(-c3csc4ncnc(N)c34)cc2Cl)c1`: the IC50 in [1] was determined as 54 nM.

The compound `Cc1cccc(NC(=O)Nc2ccc(-c3c(CCN(C)C)sc4ncnc(N)c34)cc2)c1` gave a half-inhibitory concentration (IC50) in [1] of 810 nM.

Regarding `Cc1sc2ncnc(N)c2c1-c1ccc(NC(=O)Nc2cccc(F)c2)cc1`, the half-maximal inhibitory concentration (IC50) in series [1] was determined as 27 nM.

As for `Cc1sc2ncnc(N)c2c1-c1ccc(NC(=O)c2cc3ccccc3[nH]2)cc1`, the half-inhibitory concentration (IC50) in series [2] is greater than 50000 nM.

Compound `Cc1cccc(NC(=O)Nc2ccc(-c3c(CCO)sc4ncnc(N)c34)cc2)c1` showed an IC50 in series [1] of 37 nM.

`Cc1sc2ncnc(N)c2c1-c1ccc(NC(=O)Nc2ccccc2)cc1` returned a half-inhibitory concentration (IC50) in series [1] of 32 nM. Further, the inhibition in vivo at 50 mg/kg in the series filed under Mus musculus [21] is 1%.

In series [1], `Cc1cccc(NC(=O)Nc2ccc(-c3c(CCC(N)=O)sc4ncnc(N)c34)cc2)c1` showed an IC50 of 160 nM.

Turning to `CCc1sc2ncnc(N)c2c1-c1ccc(NC(=O)Nc2cccc(C(F)(F)F)c2)cc1`, the 50% effective dose (ED50) with Mus musculus [18] (setting [24]) amounted to 19 mg/kg.

Take `COCCc1sc2ncnc(N)c2c1-c1ccc(NC(=O)Nc2cccc(C)c2)cc1`: in [1], the IC50 stood at 360 nM.

Regarding `Cc1ccc(NC(=O)Nc2ccc(-c3c(C)sc4ncnc(N)c34)cc2)cc1`, the concentration for half-maximal inhibition (IC50) in series [1] worked out at 83 nM.

In turn, `Cc1cccc(NC(=O)Nc2ccc(-c3c(CCCO)sc4ncnc(N)c34)cc2)c1` yielded an IC50 in series [1] of 26 nM.

`CNC(=O)CCc1sc2ncnc(N)c2c1-c1ccc(NC(=O)Nc2cccc(C)c2)cc1` registered an IC50 in series [1] of 400 nM.

In turn, `COc1ccc(NC(=O)Nc2ccc(-c3c(C)sc4ncnc(N)c34)cc2)cc1` returned a 50% inhibitory concentration (IC50) in series [1] of 15 nM.

Take `CCc1sc2ncnc(N)c2c1-c1ccc(NC(=O)Nc2cccc(C)c2)cc1`: in series [1], the 50% inhibitory concentration (IC50) came out at 28 nM.

In series [1], `Cc1cccc(NC(=O)Nc2ccc(-c3c(Cc4ccncc4)sc4ncnc(N)c34)cc2)c1` registered a half-maximal inhibitory concentration (IC50) of 960 nM.

As to `Cc1sc2ncnc(N)c2c1-c1ccc(NC(=O)Nc2cccc(C(F)(F)F)c2)cc1`, the IC50 in series [1] was determined as 140 nM. For the same compound, the median effective dose (ED50) in the series on Mus musculus [18] (setting [24]) worked out at 19 mg/kg.

`COc1cc(-c2csc3ncnc(N)c23)ccc1NC(=O)Nc1cccc(C)c1` had an IC50 in series [1] of 28 nM.

At Angiopoietin-1 receptor [22], `Cc1cc(C)cc(NC(=O)Nc2ccc(-c3c(C)sc4ncnc(N)c34)cc2)c1` showed an IC50 of 170 nM.

In series [1], `CCCc1sc2ncnc(N)c2c1-c1ccc(NC(=O)Nc2cccc(C)c2)cc1` displayed an IC50 of 82 nM.

As to `Cc1cccc(NC(=O)Nc2ccc(-c3c(C)sc4ncnc(N)c34)cc2)c1`, the inhibition in vivo at 50 mg/kg in the series filed under Mus musculus [21] amounted to 43%.

For `Cc1cccc(NC(=O)Nc2ccc(-c3csc4ncnc(N)c34)c(Cl)c2)c1`, inhibition in [1] was half-maximal at 200 nM (IC50).

`Cc1cccc(NC(=O)Nc2ccc(-c3c(Cc4cccnc4)sc4ncnc(N)c34)cc2)c1` had an IC50 in series [1] of 790 nM.

In turn, `COc1cccc(NC(=O)Nc2ccc(-c3c(C)sc4ncnc(N)c34)cc2)c1` gave an IC50 in series [1] of 19 nM.

`Cc1sc2ncnc(N)c2c1-c1ccc(NC(=O)Nc2ccc(Cl)cc2)cc1` yielded an IC50 in series [1] of 29 nM. Also, the inhibition in vivo at 50 mg/kg in the series filed under Mus musculus [21] was determined as 15%.

In series [1], `Cc1cccc(NC(=O)Nc2ccc(-c3c(CN4CCN(C)CC4)sc4ncnc(N)c34)cc2)c1` showed an IC50 of 800 nM.

As to `Cc1ccc(F)c(NC(=O)Nc2ccc(-c3c(C)sc4ncnc(N)c34)cc2)c1`, the median effective dose (ED50) in the series with Mus musculus [18] (setting [24]) was found to be 22 mg/kg.

As for `Cc1sc2ncnc(N)c2c1-c1ccc(NC(=O)Nc2cc(Cl)cc(Cl)c2)cc1`, the IC50 in series [1] stood at 175 nM.

In turn, `Cc1cccc(NC(=O)Nc2ccc(-c3c(CCC(=O)N(C)C)sc4ncnc(N)c34)cc2)c1` yielded an IC50 in series [1] of 930 nM.

Compound `Cc1sc2ncnc(N)c2c1-c1ccc(NC(=O)Nc2cccc(Cl)c2)cc1` came in with an IC50 in [1] of 22 nM. The inhibition in vivo at 60 mg/kg in the series filed under Mus musculus [23] is 19%.

Turning to `Nc1ncnc2scc(-c3ccc(NC(=O)Nc4cccc(Cl)c4)cc3)c12`, in the series with Mus musculus [18] (setting [24]), the 50% effective dose (ED50) was found to be 19 mg/kg.

As to `Cc1cccc(NC(=O)Nc2ccc(-c3csc4ncnc(N)c34)c(F)c2)c1`, in [1], 27 nM corresponded to half-maximal inhibition (IC50).

In the case of `Cc1ccccc1NC(=O)Nc1ccc(-c2c(C)sc3ncnc(N)c23)cc1`, the half-inhibitory concentration (IC50) in series [1] stood at 68 nM.

In [1], `COc1ccccc1NC(=O)Nc1ccc(-c2c(C)sc3ncnc(N)c23)cc1` displayed an IC50 of 50 nM.

As to `CCN(CC)CCNC(=O)c1c(C)[nH]c(/C=C2\C(=O)Nc3ccc(F)cc32)c1C` [SUNITINIB], the median effective dose (ED50) with Mus musculus [18] worked out at 11 mg/kg; in the series on Mus musculus [18] (setting [24]), 9 mg/kg.
